“Also recorded” adds a separate entry of the source.
Tests used:
Assay in all cases: Histone peptide microarray
Format in all cases: binding, human
AIRE (PP) = conditions: GST-tagged AIRE (PP); sheet Array Heatmap; each array performed twice, total n = 4
How it was run: (§1)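 GST-tagged PHD finger readers were expressed, purified and applied at 0.5 μM to a microarray of 293 synthetic histone peptides carrying single or combinatorial PTMs, using an optimized protocol. Binding signals are averages with standard deviation from 4 replicates.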

BAZ2B = conditions: GST-tagged BAZ2B; sheet Array Heatmap; each array performed twice, total n = 4
How it was run: as §1

BPTF (PB) = conditions: GST-tagged BPTF (PB = PHD + Bromodomain); sheet Array Heatmap; each array performed twice, total n = 4
How it was run: as §1

CHD5 (PCC) = conditions: GST-tagged CHD5 (PCC = PHD + Dual Chromodomain); sheet Array Heatmap; each array performed twice, total n = 4
How it was run: as §1

CHD5 (PPCC) = conditions: GST-tagged CHD5 (PPCC = Dual PHD + Dual Chromodomain); sheet Array Heatmap; each array performed twice, total n = 4
How it was run: as §1

DIDO1 = conditions: GST-tagged DIDO1; sheet Array Heatmap; each array performed twice, total n = 4
How it was run: as §1

DPF2 (PPC2W2) = conditions: GST-tagged DPF2 (PPC2W2 = Dual PHD + C2W2-type Zn-finger); sheet Array Heatmap; each array performed twice, total n = 4
How it was run: as §1

ING1 = conditions: GST-tagged ING1; sheet Array Heatmap; each array performed twice, total n = 4
How it was run: as §1

ING2 = conditions: GST-tagged ING2; sheet Array Heatmap; each array performed twice, total n = 4
How it was run: as §1

ING3 = conditions: GST-tagged ING3; sheet Array Heatmap; each array performed twice, total n = 4
How it was run: as §1

ING4 = conditions: GST-tagged ING4; sheet Array Heatmap; each array performed twice, total n = 4
How it was run: as §1

ING5 = conditions: GST-tagged ING5; sheet Array Heatmap; each array performed twice, total n = 4
How it was run: as §1

KDM5A (1) = conditions: GST-tagged KDM5A (1); sheet Array Heatmap; each array performed twice, total n = 4
How it was run: as §1

KDM5A (3) = conditions: GST-tagged KDM5A (3); sheet Array Heatmap; each array performed twice, total n = 4
How it was run: as §1

KDM5B (1) = conditions: GST-tagged KDM5B (1); sheet Array Heatmap; each array performed twice, total n = 4
How it was run: as §1

KDM5B (3) = conditions: GST-tagged KDM5B (3); sheet Array Heatmap; each array performed twice, total n = 4
How it was run: as §1

KDM7A = conditions: GST-tagged KDM7A; sheet Array Heatmap; each array performed twice, total n = 4
How it was run: as §1

MLL5 = conditions: GST-tagged MLL5; sheet Array Heatmap; each array performed twice, total n = 4
How it was run: as §1

MORC3 (CW) = conditions: GST-tagged MORC3 (CW = CW-type Zn-finger); sheet Array Heatmap; each array performed twice, total n = 4
How it was run: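 GST-PHD reader, 0.5 μM, probed on 293-peptide histone array (single/combinatorial PTMs); optimized array protocol; signal = mean ± SD, n = 4.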

PHF13 = conditions: GST-tagged PHF13; sheet Array Heatmap; each array performed twice, total n = 4
How it was run: as §1

PHF21A = conditions: GST-tagged PHF21A; sheet Array Heatmap; each array performed twice, total n = 4
How it was run: as §1

PHF2 = conditions: GST-tagged PHF2; sheet Array Heatmap; each array performed twice, total n = 4
How it was run: as §1

PHF8 = conditions: GST-tagged PHF8; sheet Array Heatmap; each array performed twice, total n = 4
How it was run: as §1

PHRF1 (RP) = conditions: for Array Heatmap signal (histone peptide microarray): GST-tagged PHRF1 (RP), sheet Array Heatmap, each array performed twice, total n = 4
How it was run: as §1

RAG2 = conditions: GST-tagged RAG2; sheet Array Heatmap; each array performed twice, total n = 4
How it was run: as §1

SP140L = conditions: GST-tagged SP140L; sheet Array Heatmap; each array performed twice, total n = 4
How it was run: as §1

TAF3 = conditions: GST-tagged TAF3; sheet Array Heatmap; each array performed twice, total n = 4
How it was run: as §1

Row | Substance | Array Heatmap signal (histone peptide microarray) (AIRE (PP)) | Array Heatmap signal (histone peptide microarray) (BAZ2B) | Array Heatmap signal (histone peptide microarray) (BPTF (PB)) | Array Heatmap signal (histone peptide microarray) (CHD5 (PCC)) | Array Heatmap signal (histone peptide microarray) (CHD5 (PPCC)) | Array Heatmap signal (histone peptide microarray) (DIDO1) | Array Heatmap signal (histone peptide microarray) (DPF2 (PPC2W2)) | Array Heatmap signal (histone peptide microarray) (ING1) | Array Heatmap signal (histone peptide microarray) (ING2) | Array Heatmap signal (histone peptide microarray) (ING3) | Array Heatmap signal (histone peptide microarray) (ING4) | Array Heatmap signal (histone peptide microarray) (ING5) | Array Heatmap signal (histone peptide microarray) (KDM5A (1)) | Array Heatmap signal (histone peptide microarray) (KDM5A (3)) | Array Heatmap signal (histone peptide microarray) (KDM5B (1)) | Array Heatmap signal (histone peptide microarray) (KDM5B (3)) | Array Heatmap signal (histone peptide microarray) (KDM7A) | Array Heatmap signal (histone peptide microarray) (MLL5) | Array Heatmap signal (histone peptide microarray) (MORC3 (CW)) | Array Heatmap signal (histone peptide microarray) (PHF13) | further results
1 | H3 (1-20): unmodified H3 N-terminal peptide (1–20) | 0.4007 | 0.438 | 0.3262 | 0.7444 | 0.5462 | 0.7104 | 0.6767 | 0.542 | 0.5908 | 0.4575 | 0.425 | 0.3305 | 0.4331 | 0.4935 | 0.6198 | 0.5464 | 0.3004 | 0.5452 | 0.4267 | 0.5761 | Array Heatmap signal (histone peptide microarray) (PHF21A): 0.4449; Array Heatmap signal (histone peptide microarray) (PHF2): 0.5688; Array Heatmap signal (histone peptide microarray) (PHF8): 0.3331; Array Heatmap signal (histone peptide microarray) (PHRF1 (RP)): 0.67; binding preference (PHRF1 (RP); peptide microarray, reader 0.5 μM, n = 4, listed as H3K4me0): strong preference for H3K4me0; also recorded: specifically bound H3K4me0 over K4me; Array Heatmap signal (histone peptide microarray) (RAG2): 0.2786; Array Heatmap signal (histone peptide microarray) (SP140L): 0.461; Array Heatmap signal (histone peptide microarray) (TAF3): 0.2842
2 | H3K4me2: H3 1-20 [Peptide H3K4me2] | 0.5318 | 0.5231 | 0.3788 | 0.8359 | 0.6021 | 0.6829 | 0.7084 | 0.601 | 0.6539 | 0.5315 | 0.5223 | 0.3985 | 0.5028 | 0.6851 | 0.6566 | 0.6323 | 0.5271 | 0.5972 | 0.6297 | 0.6844 | Array Heatmap signal (histone peptide microarray) (PHF21A): 0.4967; Array Heatmap signal (histone peptide microarray) (PHF2): 0.5474; Array Heatmap signal (histone peptide microarray) (PHF8): 0.5074; Array Heatmap signal (histone peptide microarray) (PHRF1 (RP)): 0.5228; Array Heatmap signal (histone peptide microarray) (RAG2): 0.3888; Array Heatmap signal (histone peptide microarray) (SP140L): 0.3615; Array Heatmap signal (histone peptide microarray) (TAF3): 0.3841

Source: article PMC6979384, “Characterization of the plant homeodomain (PHD) reader family for their histone tail interactions” (Epigenetics & Chromatin, 2020)
